Assay results reported in patent publication US20030077689A1, “Microbial growth variations” (priority 1999, published 2003).

Tested on: Staphylococcus aureus
Test: Replicate-well microdilution growth test (32 replicates per antibiotic concentration), growth ranked by viability in culture and direct epifluorescence
Type: cell-based
Conditions: for growth response of replicate wells: 5 hours at 37° C.
Description: Format: In general terms the entire series of tests followed the methods for use of microdilution plates. Each of the eight antibiotic concentrations was represented by 32 replicate wells, thus amounting to 8×32[256] test wells in a three plate array.
Organisms: Two cultures of Staphylococcus aureus, with one isolated from plates containing penicillin supplemented agar to provide cells of known β lactamase activity.
Inoculum: A target level of 10^2 cells/wells was selected to test an adequate number of organisms within each treatment. In the examples 2-4 the aim was to include an increasing proportion of resistant/β lactamase positive cells. Preparation by dilutions at these levels will undoubtedly be prone to errors.
Incubation: Sealed plates incubated for 5 hours at 37° C. [previously shown to provide significant growth]. At the end of incubation well contents […] were transferred to 200 μl using individual sterile pipette tips [i.e. one/well].
A 100 μl sample of diluted well contents was plated and spread on culture plates. The growth, corresponding to the situation at 5 hours, was assessed after incubation of the culture plates overnight.
ii. Direct Epifluorescence Method
A second 100 μl sample was filtered through a commercially available 0.2μ nuclepore membrane. This non-fluorescent, black filter was supported on a 5.0μcellulosic membrane filter. Discrete 3.0 mm diameter filter zones were created by attaching pre-punched black adhesive tape to the membranes. After filtration the zones were stained with 0.01% w/v Acriflavine™ in phosphate buffer at pH 7.2 [filtered immediately before use]. Direct observation, using an epifluorescence microscope resembles the DEFT method described by Pettifer G L Rodrigues U K [1982] J.Appl.Bact. 53:323-329. Using a large numerical aperture×45 objective it is relatively simple to rank the estimated density of growth.
The viability test depicts growth responses in terms of organisms recovered and subsequently able to produce colonies on a secondary culture plate. Direct epifluorescence/filtration does constitute rapid detection but in this manual form is both cumbersome and labour intensive. Within these constraints both methods served to assign rankings to the growth response of every well. The two methods were adequate to indicate the presence of growth.

## Penicillin
Example 1 (no resistant cells added), antibiotic levels higher than 0.015 μg/ml
  growth response of replicate wells: no evidence of growth
Examples 1-4, antibiotic concentration 0.004 μg/ml, 32 replicate wells
  growth response of replicate wells: all 32 replicate wells exhibit continued growth
Examples 1-4, antibiotic concentration 0.015 μg/ml
  growth response of replicate wells: the population in some wells exhibits sensitivity
Examples 2, 3 and 4 (inoculum with increasing proportion of resistant/β lactamase positive cells)
  growth response of replicate wells: an appreciable number of wells show low grade growth
Examples 2, 3 and 4, antibiotic concentration 0.250 μg/ml
  sensitivity of resistant sub-populations in some wells: insensitive
